Entries after “also recorded” stand apart in the source; their conditions may differ. Where two headings read alike, the source gives them in different places.
Columns and labels:
[1] = tested on: wild-type and β-arrestin-2 knockout mice; settings: i.p., 6 mg/kg PCP
5HT2B [2] = target: T1, 5HT2B (Homo sapiens (Human), UniProt P41595); settings: read-out: 5HT2B/binding (Ki)
5HT1A [3] = target: T2, 5HT1A (Homo sapiens (Human), UniProt P08908); test: 5HT1A cAMP biosensor; assay type: cell-based
5HT2C [4] = target: T3, 5HT2C (Homo sapiens (Human), UniProt P28335); test: biochemical
D3-dopamine receptor = D3-dopamine receptor (Homo sapiens (Human), UniProt P35462); settings: read-out: D3/binding (Ki)
D4 dopamine receptor = D4 dopamine receptor (Homo sapiens (Human), UniProt P21917); settings: read-out: D4/binding (Ki)
hD2L dopamine receptor = hD2L dopamine receptor (Homo sapiens (Human), UniProt P14416); test: pERK high-content assay; assay type: cell-based; settings: normalized to dopamine; read-out: p-ERK Emax
Protocol: On day 1 of the assay, cells were seeded onto black clear-bottom tissue culture-treated 96-well plates (Greiner, BioOne). On day 2 of the assay, cells were washed with serum-free medium (Ham's F-12, penicillin and streptomycin) and incubated in 100 μL serum-free medium overnight.
Immunofluorescence: Automatic multichannel pipetters were used for liquid handling and multichannel vacuum manifolds for aspirations. Each tested concentration was typically measured in triplicate or quadruplicate. For concentration curves, half-log-dilutions were used. Drug dilutions were prepared in stimulation medium (serum-free medium, 100 mg/L ascorbic acid). 100 μM dopamine and 1 μM PMA (phorbol 12-myristate 13-acetate) were used as positive controls. Medium only was used as a negative control. Specificity of the response was confirmed by pretreatment for 5 min with 10 μM of the antagonist spiperone and in experiments using wild type CHO cells.
Cells were stimulated on day 3 by fast addition of 50 μL equilibrated 3× drug dilutions in a tissue culture incubator for 5 min. Plates were placed on ice, the medium was aspirated, and 100 μL/well of freshly prepared ice-cold fixing buffer (4% formaldehyde and 0.5 mM CaCl2 in PBS) solution was added. After 30 min fixing at room temperature, the plates were washed with 350 μL/well PBS/Ca (0.5 mM CaCl2 in PBS) and permeabilized for 20 min in 100 μL/well 0.3% Triton X-100 in PBS/Ca. […] Plates were washed three times with 250 μL/well washing buffer, post-fixed for 10 min in fixing buffer, washed with 250 μl PBS/Ca, filled with 200 μL/well PBS/Ca, sealed with transparent adhesive plate seals, and stored at 4° C.
The Alexa594 light path was used for the target signal, Alexa488 for whole cell staining, and Hoechst for the nuclear staining. Images were analyzed using the CellProfiler software. […] Concentration curves were analyzed in GraphPad Prism by fitting against a sigmoidal dose-response model and normalization to the dopamine curve.

5HT2B [5] = target: T1, 5HT2B; test: cell-based
[6] = tested on: wild-type and β-arrestin-2 knockout mice; settings: i.p., 5.0 mg/kg (haloperidol 2.0 mg/kg), 30 and 60 min, listed as UNC9975
5HT2A [7] = target: T4, 5HT2A (Homo sapiens (Human), UniProt P28223); settings: read-out: 5HT2A/binding (Ki)
D1 dopamine receptor = D1 dopamine receptor (Homo sapiens (Human), UniProt P21728); settings: read-out: D1/binding (Ki)
5HT2B [8] = target: T1, 5HT2B
D5 dopamine receptor = D5 dopamine receptor (Homo sapiens (Human), UniProt P21918); settings: read-out: D5/binding (Ki)
5HT2C [9] = target: T3, 5HT2C; settings: read-out: 5HT2C/binding (Ki)
5HT2B [10] = target: T1, 5HT2B; test: biochemical
5HT2A [11] = target: T4, 5HT2A; test: biochemical
5HT2C [12] = target: T3, 5HT2C; test: 5HT2C FLIPR (Ca2+ mobilization); assay type: cell-based
D2 receptors [13] = target: T5, D2 receptors (Homo sapiens (Human), UniProt P14416); test: D2 β-arrestin recruitment (Tango) assay; assay type: cell-based
Protocol: The next day, cells were plated in white, clear-bottom, 384-well plates (Greiner, 10,000 cells/well, 50 μl/well) in DMEM containing 1% dialyzed fetal bovine serum. […] Data were normalized to vehicle (0%) and quinpirole (100%) controls and regressed using the sigmoidal dose-response function built into GraphPad Prism 4.0.
Target sequence in this assay (P14416 whole entry, looked up): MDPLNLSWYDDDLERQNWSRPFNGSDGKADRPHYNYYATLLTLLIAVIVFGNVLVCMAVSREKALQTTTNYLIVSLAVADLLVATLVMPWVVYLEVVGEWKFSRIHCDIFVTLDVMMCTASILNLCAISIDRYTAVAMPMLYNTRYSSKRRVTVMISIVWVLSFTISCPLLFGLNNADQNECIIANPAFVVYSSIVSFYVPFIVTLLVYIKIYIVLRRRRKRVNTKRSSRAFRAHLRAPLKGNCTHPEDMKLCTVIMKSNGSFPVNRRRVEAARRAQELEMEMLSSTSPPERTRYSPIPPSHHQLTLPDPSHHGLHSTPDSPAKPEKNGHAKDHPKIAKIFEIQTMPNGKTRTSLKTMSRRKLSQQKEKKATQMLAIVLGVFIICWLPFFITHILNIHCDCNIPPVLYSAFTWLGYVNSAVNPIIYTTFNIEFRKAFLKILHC

5HT1A [14] = target: T2, 5HT1A; test: 5HT1A binding; settings: read-out: 5HT1A/binding (Ki)
in vivo = settings: mouse
5HT2A [15] = target: T4, 5HT2A; test: 5HT2A FLIPR (Ca2+ mobilization); assay type: cell-based
hD2 receptors = hD2 receptors (Homo sapiens (Human), UniProt P14416); test: D2 mediated cAMP GloSensor assay; assay type: cell-based
C57BL/6 mice = settings: i.p., 3 mg/kg D-amphetamine
H1-histamine receptor = H1-histamine receptor (Homo sapiens (Human), UniProt P35367); test: H1 binding
[16] = mouse
D2 receptors [17] = target: T5, D2 receptors; test: CHO-D2 radioligand binding assay ([3H]N-methylspiperone competition)
Target sequence in this assay (P14416 whole entry): as the sequence (P14416 whole entry, looked up) above

T1 sequence (P41595 whole entry, species assumed): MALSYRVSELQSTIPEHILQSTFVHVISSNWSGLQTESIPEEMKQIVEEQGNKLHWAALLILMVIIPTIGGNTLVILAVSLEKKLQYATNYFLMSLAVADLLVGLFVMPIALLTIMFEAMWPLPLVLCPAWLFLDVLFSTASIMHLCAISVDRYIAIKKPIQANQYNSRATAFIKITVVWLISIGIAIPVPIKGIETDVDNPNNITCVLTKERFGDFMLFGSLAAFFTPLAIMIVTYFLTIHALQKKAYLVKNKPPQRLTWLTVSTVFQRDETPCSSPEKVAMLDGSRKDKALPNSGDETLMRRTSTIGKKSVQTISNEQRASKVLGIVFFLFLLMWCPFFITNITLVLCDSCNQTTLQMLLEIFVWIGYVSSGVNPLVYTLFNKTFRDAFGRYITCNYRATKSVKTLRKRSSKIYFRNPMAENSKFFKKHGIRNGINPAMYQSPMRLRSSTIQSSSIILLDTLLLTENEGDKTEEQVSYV
T3 sequence (P28335 33-458, species assumed): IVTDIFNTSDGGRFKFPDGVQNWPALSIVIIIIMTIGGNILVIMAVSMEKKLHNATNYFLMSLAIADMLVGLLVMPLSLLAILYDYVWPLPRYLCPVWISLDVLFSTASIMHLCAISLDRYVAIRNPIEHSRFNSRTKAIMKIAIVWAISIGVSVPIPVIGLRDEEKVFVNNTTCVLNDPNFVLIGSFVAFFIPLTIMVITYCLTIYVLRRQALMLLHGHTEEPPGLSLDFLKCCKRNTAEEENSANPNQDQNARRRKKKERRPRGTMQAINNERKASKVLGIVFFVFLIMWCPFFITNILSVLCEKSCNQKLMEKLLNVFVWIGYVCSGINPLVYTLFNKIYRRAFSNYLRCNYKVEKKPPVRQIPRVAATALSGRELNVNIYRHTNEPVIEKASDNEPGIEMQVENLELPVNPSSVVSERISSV
Sequence of hD2 receptors (P14416 whole entry): as the sequence (P14416 whole entry, looked up) above
Sequence of hD2L dopamine receptor (P14416 whole entry): as the sequence (P14416 whole entry, looked up) above
Sequence of D4 dopamine receptor (P21917 whole entry): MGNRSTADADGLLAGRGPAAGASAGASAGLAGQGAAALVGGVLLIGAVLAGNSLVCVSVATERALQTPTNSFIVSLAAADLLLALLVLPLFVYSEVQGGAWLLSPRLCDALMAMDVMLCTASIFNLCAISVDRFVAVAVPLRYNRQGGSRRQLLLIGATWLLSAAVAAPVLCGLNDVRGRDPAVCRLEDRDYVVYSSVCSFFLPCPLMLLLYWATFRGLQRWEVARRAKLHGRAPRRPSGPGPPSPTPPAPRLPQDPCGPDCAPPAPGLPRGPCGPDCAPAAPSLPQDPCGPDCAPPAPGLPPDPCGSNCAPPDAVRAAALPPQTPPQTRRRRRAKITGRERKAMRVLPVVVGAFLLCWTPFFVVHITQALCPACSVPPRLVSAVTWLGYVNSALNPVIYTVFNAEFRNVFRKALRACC
Sequence of D5 dopamine receptor (P21918 whole entry): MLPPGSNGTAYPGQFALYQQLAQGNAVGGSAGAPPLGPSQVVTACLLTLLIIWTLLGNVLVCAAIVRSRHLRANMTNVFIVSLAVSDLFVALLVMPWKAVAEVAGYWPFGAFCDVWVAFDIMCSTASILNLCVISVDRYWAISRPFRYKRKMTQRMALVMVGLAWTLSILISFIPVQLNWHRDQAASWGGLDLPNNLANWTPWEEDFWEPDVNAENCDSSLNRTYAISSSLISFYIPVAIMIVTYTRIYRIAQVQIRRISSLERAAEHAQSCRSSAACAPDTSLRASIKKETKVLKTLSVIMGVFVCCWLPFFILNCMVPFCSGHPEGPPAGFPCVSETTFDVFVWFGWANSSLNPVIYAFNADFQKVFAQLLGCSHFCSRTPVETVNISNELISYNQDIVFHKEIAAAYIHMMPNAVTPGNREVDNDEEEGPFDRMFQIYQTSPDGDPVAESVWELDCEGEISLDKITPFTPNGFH
Sequence of D1 dopamine receptor (P21728 whole entry): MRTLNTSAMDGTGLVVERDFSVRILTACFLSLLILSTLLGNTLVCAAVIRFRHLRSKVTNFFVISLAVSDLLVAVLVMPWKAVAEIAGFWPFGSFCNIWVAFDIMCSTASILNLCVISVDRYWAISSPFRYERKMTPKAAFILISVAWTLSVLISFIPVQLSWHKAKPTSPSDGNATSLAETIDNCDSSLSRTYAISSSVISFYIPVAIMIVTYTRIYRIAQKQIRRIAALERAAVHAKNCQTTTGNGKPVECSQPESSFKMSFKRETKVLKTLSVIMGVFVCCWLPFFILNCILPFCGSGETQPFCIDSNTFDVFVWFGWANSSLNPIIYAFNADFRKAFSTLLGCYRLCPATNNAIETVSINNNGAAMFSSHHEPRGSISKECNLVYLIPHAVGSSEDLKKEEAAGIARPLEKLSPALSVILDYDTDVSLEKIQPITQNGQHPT
Sequence of D3-dopamine receptor (P35462 whole entry): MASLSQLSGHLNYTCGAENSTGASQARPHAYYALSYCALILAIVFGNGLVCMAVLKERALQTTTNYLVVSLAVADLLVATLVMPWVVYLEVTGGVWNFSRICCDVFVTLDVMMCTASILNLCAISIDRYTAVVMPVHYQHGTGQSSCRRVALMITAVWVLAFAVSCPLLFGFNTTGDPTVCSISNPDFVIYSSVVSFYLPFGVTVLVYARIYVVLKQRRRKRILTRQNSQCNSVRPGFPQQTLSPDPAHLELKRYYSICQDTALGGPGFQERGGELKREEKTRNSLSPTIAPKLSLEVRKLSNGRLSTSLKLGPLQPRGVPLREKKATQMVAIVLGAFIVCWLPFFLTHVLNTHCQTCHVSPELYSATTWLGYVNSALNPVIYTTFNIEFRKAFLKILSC
Sequence of H1-histamine receptor (P35367 whole entry): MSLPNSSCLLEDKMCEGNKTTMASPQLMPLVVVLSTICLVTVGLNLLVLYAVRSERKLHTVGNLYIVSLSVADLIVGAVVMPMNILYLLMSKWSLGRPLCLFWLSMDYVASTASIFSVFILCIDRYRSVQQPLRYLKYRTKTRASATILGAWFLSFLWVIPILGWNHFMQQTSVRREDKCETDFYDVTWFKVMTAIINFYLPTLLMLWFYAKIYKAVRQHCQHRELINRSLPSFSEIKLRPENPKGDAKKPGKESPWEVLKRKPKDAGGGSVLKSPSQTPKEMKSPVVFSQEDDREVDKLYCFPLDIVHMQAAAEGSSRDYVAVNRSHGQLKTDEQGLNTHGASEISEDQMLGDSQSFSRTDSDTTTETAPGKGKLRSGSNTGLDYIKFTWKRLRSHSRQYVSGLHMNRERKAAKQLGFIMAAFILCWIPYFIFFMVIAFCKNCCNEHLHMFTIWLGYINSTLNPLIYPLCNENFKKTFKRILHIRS

## O=C1CCc2ccc(OCCCCN3CCCN(c4cccc(Cl)c4Cl)CC3)nc2N1 [Compound 3, 7-(4-(4-(2,3-dichlorophenyl)-1,4-diazepan-1-yl)butoxy)-3,4-dihydro-1,8-naphthyridin-2(1H)-one]
[1]; wild-type mice
  antipsychotic-like activity in PCP-induced hyperlocomotion: potent antipsychotic-like activity
[1]; β-arrestin-2 knockout mice
  antipsychotic-like activity in PCP-induced hyperlocomotion: attenuated
5HT2B [2]
  Ki: 0.0011 µM
5HT1A [3]; read-out: 5HT1A/cAMP (EC50)
  EC50: 1.8 µM
5HT1A [3]; text bound, read-out: 5HT1A EC50 (weak agonists)
  EC50: > 1 µM
5HT2C [4]
  Ki: 0.0006 to 0.25 µM
D3-dopamine receptor
  Ki: 0.011 µM
D4 dopamine receptor
  Ki: 0.178 µM
hD2L dopamine receptor
  Emax: < 5%
5HT2B [5]
  IC50: 0.076 µM
[6]; wild-type mice
  catalepsy (latency to move, inclined screen test): do not induce catalepsy
[6]; β-arrestin-2 knockout mice
  catalepsy (latency to move, inclined screen test): induced catalepsy; also recorded: inducing catalepsy
5HT2A [7]
  Ki: 0.0074 µM
D1 dopamine receptor
  Ki: 1.04 µM
5HT2B [8]
  functional mode at 5HT2B: antagonists
D5 dopamine receptor
  Ki: 0.513 µM
5HT2C [9]
  Ki: 0.099 µM
5HT2B [10]
  Ki: 0.0006 to 0.25 µM
5HT2A [11]
  Ki: 0.0006 to 0.25 µM
5HT2C [12]
  functional mode at 5HT2C: antagonists
5HT2C [12]; read-out: 5HT2C/FLIPR (IC50)
  IC50: 2.2 µM
D2 receptors [13]; 1 μM
  β-arrestin (Tango) % activ at 1 μM: 11%
D2 receptors [13]; HTLA cells, read-out: β-arrestin (Tango) EC50
  EC50: 0.0033 µM
D2 receptors [13]; normalized to quinpirole (100%)
  Emax: 44%
5HT1A [14]
  Ki: 0.029 µM
In vivo; brain
  AUC(0-inf): 329 ng·h/mL
  AUC(0-t): 267 ng·h/mL
  Cmax: 49.8 ng/mL
  Tmax: 15 min
  concentration at 0.08 h: 37.8 ng/g
  concentration at 0.5 h: 27.2 ng/g
  concentration at 1 h: 31.2 ng/g
  concentration at 2 h: 23 ng/g
  concentration at 4 h: 16.9 ng/g
  concentration at 8 h: 9.9 ng/g
  concentration at 24 h: 4.2 ng/g
  half-life: 636 min
In vivo; plasma
  AUC(0-inf): 61.5 ng·h/mL
  AUC(0-t): 59.9 ng·h/mL
  Cmax: 70.6 ng/mL
  Tmax: 4.8 min
  concentration at 0.08 h: 70.6 ng/mL
  concentration at 0.5 h: 23.7 ng/mL
  concentration at 1 h: 24.6 ng/mL
  concentration at 2 h: 6.3 ng/mL
  concentration at 4 h: 1.4 ng/mL
  concentration at 8 h: 0 ng/mL
  concentration at 24 h: 0 ng/mL
  half-life: 48.6 min
5HT2A [15]
  IC50: 0.66 µM
  functional mode at 5HT2A: antagonists
hD2 receptors
  EC50: 0.013 µM
hD2 receptors; read-out: cAMP (GloSensor) Emax
  Emax: -94%
C57BL/6 mice
  antipsychotic-like activity in D-amphetamine-induced hyperlocomotion: potent antipsychotic-like activity
H1-histamine receptor
  Ki: 0.0061 µM
[16]
  brain exposure level, fold lower compared to aripiprazole: about 3 fold
[16]; 0.08 h
  Brain/Plasma Ratio: 0.57 mL/g
[16]; 0.5 h
  Brain/Plasma Ratio: 1.12 mL/g
[16]; 1 h
  Brain/Plasma Ratio: 1.29 mL/g
[16]; 2 h
  Brain/Plasma Ratio: 3.67 mL/g
[16]; 4 h
  Brain/Plasma Ratio: 12.26 mL/g
[16]; […]
  Brain/Plasma Ratio: 0.80 mL/g
D2 receptors [17]; Table 7, read-out: D2/binding (Ki)
  Ki: < 0.01 µM
D2 receptors [17]; read-out: D2/binding (Ki)
  Ki: 0.0026 µM
D2 receptors [17]; read-out: D2 Binding Ki ± SEM
  Ki: 0.0012 ± 0.0001 µM
